From US11260091B2, “Red seaweed extracts, formulations and anti-microbial uses thereof” (OCEANS LTD., priority 2017, dated 2022)

Assays:
Assay in all cases: Liquid phase testing (bacterial growth, OD600)
[1] = system: resistant Staphylococcus aureus; type: cell-based; conditions: S. aureus, 30 μg/ml positive control
Experimental: (§1) Stock solutions of extracts were prepared in dimethylsulfoxide (DMSO) at 10 mg/ml and stored in 200 μl aliquots at −20° C. until used. Two pathological agents were assessed: resistant Staphylococcus aureus and resistant Staphylococcus pseudointermedius. Three concentrations of each extract (5, 10 and 25 μg/ml) were evaluated in triplicate for each trial. Vehicle alone served as negative control. […] For selected samples, studies were repeated at 100 and 50 μg/ml.
(§2) A standard micro or mini-prep chase study was conducted. Briefly, liquid media was inoculated with a starting bolus of 0.01% bacteria and spiked with test extract at the study concentrations. Samples were incubated (shaking, 37° C.) overnight for 16 hours and bacterial growth enumerated by UV spectrometry in quadruplicate.

[2] = system: resistant Staphylococcus pseudointermedius; type: cell-based, Staphylococcus pseudintermedius; conditions: S. pseudo, 30 μg/ml positive control
Experimental: as §1, §2

P. acnes = type: cell-based, Propionibacterium acnes; conditions: 30 μg/ml positive control
[3] = higher concentration study (Table 4)

For `O=C(N[C@H](CO)[C@H](O)c1ccc([N+](=O)[O-])cc1)C(Cl)Cl` [CAP, Chloramphenicol], the “OD600” value ([1]; Table 2) was 0.023, the OD600 [1, 3] was 0.002 and the “OD600” value ([2]; Table 2) was 0.021. The OD600 [2, 3] was 0.004, the “OD600” value (P. acnes; Table 2) was 0.005 and the OD600 (P. acnes; [3]) was 0.000.
